Data taken from patent publication US20180110837A1, “METHODS AND ASSAYS RELATING TO MACROPHAGE DIFFERENTIATION” (THE BRIGHAM AND WOMEN'S HOSPITAL, INC., priority 2012, published 2018).
“Also recorded” adds a separate entry of the source. Values belong to the molecule of their own block, whether it stands above or below them.

Assays:
HUVEC cells = assay: cytoskeletal staining (F-actin, paxillin) of HUVEC cells; assay type: cell-based; conditions: versus vehicle treated controls
Text: FIG. 11A depicts HUVEC cells stained for the cytoskeletal proteins F-actin and paxillin. […] Scale bar, 20 μm. FIG. 11B depicts Western analysis of HUVECs transfected with siRNA targeting of ROCK1, ROCK2, or both. Negative control, a scramble 20-mer RNA. BlockIt (Invitrogen), a fluorescently labeled RNA to track uptake/transfection efficiency.

CNV lesions [1] = assay: laser-induced CNV in mice, lesion size in choroidal flat mounts; assay type: in vivo, mouse; conditions: for CNV lesions on day 14: treatment from day 1 or from day 7 after laser injury
Text: (§1) To induce CNV, C57BL/6 mice were anesthetized and pupils were dilated with 5% phenylephrine and 0.8% tropicamide. Using a 532-nm laser (Oculight GLx, Iridex), a slit-lamp delivery system, and a cover glass as a contact lens, four spots (100 mW, 50 μm, 100 ms) were placed in each eye. The lesions were located at 3, 6, 9 and 12 o'clock, meridians centered on the optic nerve head and located 2 to 3 disk diameter from the optic nerve head. The same technique was used to induce CNV in Brown Norway rats (four spots, 150 mW, 100m, 100 ms) 53,54 and cynomolgus monkeys (700 mW, 100m, 100 ms) 29. Development of a bubble under laser radiation confirmed the rupture of the Bruch's membrane. Eyes showing hemorrhage were excluded from experiments.
(§2) Seven or fourteen days after laser injury, the size of CNV lesions was measured in choroidal flat mounts. Briefly, mice were anesthetized and perfused through the left ventricle with PBS, followed by 5 ml of 5% fluorescein isothiocyanate-dextran (FD2000S; Sigma Aldrich) in 1% gelatin. The anterior segment and retina were removed from the eyecup. The remaining retinal pigment epithelium (RPE)-choroidsclera complex was flat mounted, after relaxing radial incisions, using Mounting Medium (FM 100119, Thermo Scientific) and coverslips. Micrographs of the choroidal complex were taken with a Leica Microscope. The volume of the lesions was quantified, using confocal microscopy (Leica TCS SP2 laser scanning confocal microscope). The magnitude of the CNV lesions was determined by measuring the hyperfluorescent area with Openlab Software (Improvision). The grade of leakage was determined by Fluorescein angiography (FA).
The control animals received equivalent amounts of vehicle, glyceryl trioctanoate (91039, Sigma-Aldrich).

[2] = electroretinography (ERG) after intravitreal injection; assay type: in vivo, Brown Norway rats; conditions: rats, intravitreal injections on days 0, 3 and 6
Protocol: On day 13, rats were dark-adapted overnight and then anesthetized. Pupils were dilated using 1% tropicamide. Methods for recording dark- and light-adapted ERGs were performed as previously described 55.

[3] = tested on: CD11b/CD206 infiltrating cells in CNV; assay: FACS analysis of infiltrating cells from CNV eyes; assay type: in vivo, mouse
Protocol: To examine macrophages in the retina and choroid, cells were prepared from mouse eyes. To collect a sufficient number of ocular infiltrating cells, 50 burns were delivered to mouse eyes by laser. After laser injury, eyes were enucleated at different time points (1, 2, 3, 5, and 7 days). The anterior segment (cornea, iris, and lens) was excised and the posterior segment of the eye including sclera, choroid, and retina was disrupted with scissors and then shaken in DMEM (plus 10% FBS (Gibco Laboratories), 100 U/ml penicillin, 100 μg/ml streptomycin) supplemented with 0.5 mg/ml Collagenase type D (11 088 874 103, Boehringer Mannheim) at 37° C. for 60 min. The supernatants were collected and passed through a mesh. After 3 washes, viable cells were obtained. A total of 12 eyes (6 individual pools) were examined per group. The cells were stained with PE anti-mouse CD11b (557397, BD Pharmingen), FITC antimouse CD206 (MMR, 123005; BioLegend) and PE-Cy5 anti-mouse CD80 Abs (15-0801-81, eBioscience). RAW 264.7 cells were stained with PerCP anti-mouse CD11b (101230, BioLegend), PerCP anti-mouse F4/80 (123006, BioLegend), PE anti-mouse CD80 (12-0801, eBioscience), FITC anti-mouse CD206 (141704, BioLegend). […] The control animals received equivalent amounts of vehicle, glyceryl trioctanoate (91039, Sigma-Aldrich).

[4] = tested on: vascular leakage of CNV lesions; assay: leakage from angiogenic vessels by fluorescein angiography after laser injury; assay type: in vivo, mice
Protocol: FA was performed in anesthetized Brown Norway rats from ROCK inhibitor or vehicle treated groups, using a digital fundus camera (SLO; HRA2; Heidelberg Engineering), 7 and 14 days after laser injury. Fluorescein injections were performed intravenously (0.2 ml of 2% fluorescein; Akorn, NDC 17478-253-10). Monkeys were injected with 5% fluorescein intravenously (Fluorescite, Alcon). FA images were evaluated by two masked retina specialists. The grading criteria were as follows: Grade-0, no hyperfluorescence; Grade-I, hyperfluorescence without leakage; Grade-IIA, hyperfluorescence in the early or mid-transit images and late leakage; Grade-IIB, bright hyperfluorescence in the transit images and late leakage beyond the treated areas. The Grade-IIB lesions were considered as clinically significant, as described previously 53. […] The control animals received equivalent amounts of vehicle, glyceryl trioctanoate (91039, Sigma-Aldrich).

[5] = in vivo; cited from earlier work
CNV lesions [6] = assay: laser-induced CNV in rats, intravitreal ROCK inhibition; assay type: in vivo, Brown Norway rats
Text: as §1
as §2, with “The remaining retinal pigment epithelium (RPE)-choroidsclera complex was flat mounted, after relaxing radial incisions, using Mounting Medium (FM 100119, Thermo Scientific) and coverslips. Micrographs of the choroidal complex were taken with a Leica Microscope.” left out, “(FA). […]” for “(FA).”

ROCK1 [7] = target: T1, ROCK1 (Homo sapiens, UniProt Q13464); conditions: at concentrations up to 10 μM; cited from earlier work
T1 construct: recombinant ROCK1 and ROCK2 enzymes containing the truncated catalytic domains (PV3691 and PV3759) were purchased from Invitrogen; purchased Invitrogen PV3691

ROCK1 [8] = target: T1, ROCK1; assay: ROCK1 enzymatic activity, [γ33P]ATP / S6 kinase substrate radiometric assay (FIG. 7A); assay type: biochemical; conditions: FIG. 7B; ROCK1 versus ROCK2
protein kinase A and C = conditions: cited from earlier work
MLCK = conditions: read-out: Ki MLCK; cited from earlier work
all tested kinases = conditions: scale of 0 to 1; over 175 inhibitors; cited from earlier work
CNV lesions [9] = assay: laser-induced CNV in cynomolgus monkeys, intravitreal fasudil; assay type: in vivo, cynomolgus monkey
Protocol: Eyes from cynomolgus monkeys between 3 and 4 years of age were used in this study. Cynomolgus monkeys were restrained in a squeeze cage and injected intramuscularly in the thigh with 20 mg/kg of ketamine hydrochloride (Sankyo Yell Pharmaceutical Products Co) for general anesthesia.
Paraffin embedded sections of human eyes were deparaffinized and rehydrated with a graded alcohol series. Immunofluorescent staining was performed with antibodies (Abs) against human von Willebrandt factor (F3520, Sigma), human MMR (CD206, MAB2534, R&D Systems), human CD80 (ab53003 Abcam) or human ROCK1 (sc-17794, Santa Cruz Biotechnology) or ROCK2 (sc-1851, Santa Cruz Biotechnology) and identified with Alexa Fluor 488 (10 μg/ml, A-11055; Invitrogen) or 647 (10 μg/ml, A21244; Invitrogen) secondary Abs. On day 3 after laser injury, 10 μm frozen sections of the posterior segment were prepared. The mouse eye sections were incubated with a rat anti-mouse F4/80 mAb (MCA497R, AbD Serotec) or CD11b (550282, BD Pharmingen), and subsequently with the secondary Ab. In monkey eyes, CD68 (goat polyclonal antibody, sc-7082, Santa Cruz), vWF (rabbit polyclonal antibody, A0082, DAKO), ROCK1 (mouse monoclonal antibody, sc-17794, Santa Cruz) and ROCK2 (goat polyclonal antibody, sc-1851, Santa Cruz) were stained. Images were obtained with a Leica microscope.
To induce CNV, C57BL/6 mice were anesthetized and pupils were dilated with 5% phenylephrine and 0.8% tropicamide. Using a 532-nm laser (Oculight GLx, Iridex), a slit-lamp delivery system, and a cover glass as a contact lens, four spots (100 mW, 50 μm, 100 ms) were placed in each eye. The lesions were located at 3, 6, 9 and 12 o'clock, meridians centered on the optic nerve head and located 2 to 3 disk diameter from the optic nerve head. […]
FA was performed in anesthetized Brown Norway rats from ROCK inhibitor or vehicle treated groups, using a digital fundus camera (SLO; HRA2; Heidelberg Engineering), 7 and 14 days after laser injury. […] FA images were evaluated by two masked retina specialists. […]

[10] = IL-4, IL-10 and IL-13 injected eyes, in addition ROCK2 inhibitor treated
[11] = M1-cytokine cocktail injected eyes, in addition ROCK2 inhibitor treated
[12] = systemic treatment after laser injury
[13] = monkeys, intravitreal injections

T1 sequence (Q13464 76-338 limits assumed): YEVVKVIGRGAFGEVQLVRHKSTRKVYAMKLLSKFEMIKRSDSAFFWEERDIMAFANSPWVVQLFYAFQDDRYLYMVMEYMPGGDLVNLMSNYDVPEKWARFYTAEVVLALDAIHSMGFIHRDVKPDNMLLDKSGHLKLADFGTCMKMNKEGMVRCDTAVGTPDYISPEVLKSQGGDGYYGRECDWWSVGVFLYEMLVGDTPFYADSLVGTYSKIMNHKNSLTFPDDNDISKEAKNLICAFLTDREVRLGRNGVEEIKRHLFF

SMILES: CC(C)NC(=O)COc1cccc(-c2nc(Nc3ccc4[nH]ncc4c3)c3ccccc3n2)c1 [SLx-2119]
paxillin distribution (HUVEC cells): comparable to the control cells
CNV size (CNV lesions [1]; [10]): reduced to control levels
CNV (CNV lesions [1]; [11]): remained unaffected
CNV size in adiponectin−/− mice (CNV lesions [1]; adiponectin−/− mice): lack of function
dose at which maximum efficacy was reached (CNV lesions [1]; intraperitoneal): 10 mg/kg
reduction of CNV (CNV lesions [1]; intraperitoneal, dose of 1 mg/kg): 66%
CNV size (CNV lesions [1]; [12]): significantly decreased
CNV size (CNV lesions [1]; systemic treatment after laser injury, listed as selective ROCK2 inhibitor): significantly reduced
CNV lesions on day 14 (CNV lesions [1]; listed as ROCK2 inhibitor): reduced; also recorded: CNV reduction
changes in the electroretinogram (ERG) [2]: does not cause functional ERG changes
MaDAMs [3]: significantly decreased
percentage of clinically relevant 2B leakage [4, 10]: reduced to control levels
leakage [4, 11]: remained unaffected
leakage / percentage of the clinically relevant 2B leakages ([4]; fluorescein angiography): significantly decreased
phase I clinical (toxicity) trial [5]: successfully completed
CNV size (day 7) (CNV lesions [6]): reduces CNV
ROCK1 enzymatic activity (ROCK1 [7]): did not affect

inhibitory activities against ROCK1 and ROCK2 compared (ROCK1 [8]): equipotent
SMILES: C[C@@H](N)[C@H]1CC[C@H](C(=O)Nc2ccncc2)CC1 [Y-27632, (R)-(+)-trans-N-(4-pyridyl)-4-(1-aminoethyl)-cyclohexanecarboxamide]
paxillin distribution (HUVEC cells): concentrated in the nuclear or immediate perinuclear regions
effect on protein kinase A and C (protein kinase A and C): affect

SMILES: Cl.O=S(=O)(c1cccc2cnccc12)N1CCCNCC1 [fasudil, 5-(1,4-diazepan-1-ylsulfonyl)isoquinoline hydrochloride]
paxillin distribution (HUVEC cells): concentrated in the nuclear or immediate perinuclear regions
reduction of CNV lesions compared to control (CNV lesions [1]; pan ROCK inhibition, rodents): ~60%
CNV size (CNV lesions [1]; [12]): significantly smaller
CNV lesions on day 14 (CNV lesions [1]): CNV reduction
Ki (MLCK): 36 µM
changes in the electroretinogram (ERG) [2]: does not cause functional ERG changes
inhibitory activities against ROCK1 and ROCK2 compared (ROCK1 [8]): equipotent
gini score (all tested kinases): 0.63
macrophage infiltration into CNV lesions (CNV lesions [9]; monkey eyes, intravitreal injection): significantly reduced
CNV membrane thickness (CNV lesions [9]; [13]): significantly reduced
percentage of the clinically relevant 2B leakages (CNV lesions [9]; [13]): significantly reduced
effect on protein kinase A and C (protein kinase A and C): affect
CNV size (day 7) (CNV lesions [6]): reduces CNV
